# Laboratory results taken from US8106042B2 (priority 2008, dated 2012).
# Biological target: α7-subtype of nicotinic receptors (Mus musculus, UniProt P49582)
# Test: in vivo
# Design: species or system mice
# Conditions: read-out: Inhibition of 3H-α-Bungarotoxine Binding EC50
# Chain of α7-subtype of nicotinic receptors (P49582 23-502): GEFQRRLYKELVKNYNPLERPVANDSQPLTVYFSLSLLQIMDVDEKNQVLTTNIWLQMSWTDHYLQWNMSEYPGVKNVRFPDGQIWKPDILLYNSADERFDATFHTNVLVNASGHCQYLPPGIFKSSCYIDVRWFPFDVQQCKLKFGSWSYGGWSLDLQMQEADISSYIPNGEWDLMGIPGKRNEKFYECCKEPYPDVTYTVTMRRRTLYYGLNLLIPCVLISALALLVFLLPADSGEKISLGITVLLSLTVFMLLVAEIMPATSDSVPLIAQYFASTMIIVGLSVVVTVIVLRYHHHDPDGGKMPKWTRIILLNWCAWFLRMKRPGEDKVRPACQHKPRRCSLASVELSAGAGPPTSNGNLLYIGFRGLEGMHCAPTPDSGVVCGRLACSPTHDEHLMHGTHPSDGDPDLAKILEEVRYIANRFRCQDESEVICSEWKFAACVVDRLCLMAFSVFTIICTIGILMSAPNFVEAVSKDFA
smiles,measurement,value
"[O-][N+]12CCC(CC1)N(c1nnc(-c3ccc4c(c3)OCO4)o1)CC2 [Compound 1, 4-(5-Benzo[1,3]-dioxol-5-yl-[1,3,4]oxadiazol-2-yl)-1,4-diazabicyclo[3.2.2]-nonane-1-oxide]",ED50,1.5 mg/kg
